{"source": "ChEMBL document CHEMBL1201862", "about": "“PubChem BioAssay data set” (2004)", "key": {"CAAX prenyl protease 2 [1]": {"target": "CAAX prenyl protease 2 (Homo sapiens, UniProt Q9Y256)", "sequence (Q9Y256 whole entry)": "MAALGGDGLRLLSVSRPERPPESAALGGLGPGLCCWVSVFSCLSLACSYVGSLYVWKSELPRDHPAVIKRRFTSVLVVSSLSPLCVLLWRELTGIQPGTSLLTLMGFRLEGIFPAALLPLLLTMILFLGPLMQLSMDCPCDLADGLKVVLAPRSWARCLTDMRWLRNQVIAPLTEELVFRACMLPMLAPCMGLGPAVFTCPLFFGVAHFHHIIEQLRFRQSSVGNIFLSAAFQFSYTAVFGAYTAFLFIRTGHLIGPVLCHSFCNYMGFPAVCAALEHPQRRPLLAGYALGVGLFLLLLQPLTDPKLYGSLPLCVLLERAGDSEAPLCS", "assay": "human Rce1 protease inhibitors, dose response, biochemical, yeast membranes, quenched-peptide fluorescence, cherry-pick (AID 588849)"}, "Trypsin": {"target": "Trypsin (Sus scrofa, UniProt P00761)", "sequence (P00761 whole entry)": "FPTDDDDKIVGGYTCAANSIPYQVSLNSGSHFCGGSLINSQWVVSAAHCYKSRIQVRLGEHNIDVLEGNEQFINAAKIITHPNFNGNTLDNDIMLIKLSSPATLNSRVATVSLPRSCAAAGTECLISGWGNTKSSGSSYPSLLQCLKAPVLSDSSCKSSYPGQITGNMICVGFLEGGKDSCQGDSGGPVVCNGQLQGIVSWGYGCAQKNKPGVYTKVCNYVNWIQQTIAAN", "assay": "porcine trypsin inhibitors, dose response, selectivity assay for Rce1 protease inhibitor project, biochemical, quenched peptide fluorescence, cherry-pick (AID 488789)"}, "CAAX prenyl protease 2 [2]": {"target": "T1, CAAX prenyl protease 2 (Saccharomyces cerevisiae S288c, UniProt Q03530)", "T1 sequence (Q03530 whole entry)": "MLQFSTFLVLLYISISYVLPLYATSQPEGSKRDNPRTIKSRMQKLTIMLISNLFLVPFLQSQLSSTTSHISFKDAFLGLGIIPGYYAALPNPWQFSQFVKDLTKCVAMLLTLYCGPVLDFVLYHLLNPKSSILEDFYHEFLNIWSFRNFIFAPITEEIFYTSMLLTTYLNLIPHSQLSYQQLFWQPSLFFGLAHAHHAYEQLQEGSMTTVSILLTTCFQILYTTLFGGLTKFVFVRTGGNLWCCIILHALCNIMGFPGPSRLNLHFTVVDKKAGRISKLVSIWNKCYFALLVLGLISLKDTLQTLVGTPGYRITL", "type": "biochemical"}, "[3]": {"target": "Voltage-gated inwardly rectifying potassium channel KCNH2 (Homo sapiens, UniProt Q12809)", "sequence (Q12809 whole entry)": "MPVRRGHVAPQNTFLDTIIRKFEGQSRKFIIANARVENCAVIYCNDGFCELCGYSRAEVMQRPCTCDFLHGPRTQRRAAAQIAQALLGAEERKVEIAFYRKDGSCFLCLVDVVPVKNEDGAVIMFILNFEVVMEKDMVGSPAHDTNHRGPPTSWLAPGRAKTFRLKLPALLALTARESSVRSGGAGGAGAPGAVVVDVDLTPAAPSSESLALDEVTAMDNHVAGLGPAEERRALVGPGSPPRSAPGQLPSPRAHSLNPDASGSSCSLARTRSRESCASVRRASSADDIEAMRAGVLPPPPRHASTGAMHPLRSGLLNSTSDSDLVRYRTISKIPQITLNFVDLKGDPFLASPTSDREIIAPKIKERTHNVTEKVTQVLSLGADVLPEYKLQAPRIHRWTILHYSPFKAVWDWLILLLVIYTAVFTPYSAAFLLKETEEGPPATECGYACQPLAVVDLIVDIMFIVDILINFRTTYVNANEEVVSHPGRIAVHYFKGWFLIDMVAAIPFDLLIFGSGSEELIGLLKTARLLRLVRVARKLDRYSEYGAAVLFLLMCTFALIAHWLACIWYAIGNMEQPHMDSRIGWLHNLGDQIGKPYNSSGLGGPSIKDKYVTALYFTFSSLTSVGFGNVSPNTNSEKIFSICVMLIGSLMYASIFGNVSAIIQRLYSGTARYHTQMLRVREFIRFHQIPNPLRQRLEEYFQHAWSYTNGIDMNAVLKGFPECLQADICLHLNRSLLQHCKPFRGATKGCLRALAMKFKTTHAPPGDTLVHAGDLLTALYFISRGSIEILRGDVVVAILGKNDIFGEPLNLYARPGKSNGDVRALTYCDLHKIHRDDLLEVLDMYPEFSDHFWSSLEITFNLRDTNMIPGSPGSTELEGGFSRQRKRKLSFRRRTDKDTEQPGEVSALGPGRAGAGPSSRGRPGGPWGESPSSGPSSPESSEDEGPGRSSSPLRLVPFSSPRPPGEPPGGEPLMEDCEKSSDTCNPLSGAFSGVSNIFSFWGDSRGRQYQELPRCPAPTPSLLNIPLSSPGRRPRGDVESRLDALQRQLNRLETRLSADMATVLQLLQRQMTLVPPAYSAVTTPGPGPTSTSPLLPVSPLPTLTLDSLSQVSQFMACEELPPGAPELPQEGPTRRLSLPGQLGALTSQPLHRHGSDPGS", "conditions": "Potency"}, "[4]": {"assay": "insulin promoter down-regulators in MIN6 cells, imaging, high-content screening, mouse beta cells (AID 1628)", "type": "functional"}, "INS1": {"test_system": "INS1", "assay": "beta cell apoptosis inhibitors, cytokine rescue, dose response, luminescence, retest (AID 449756);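 note: cell death triggered by IL-1 beta plus TNF-alpha plus IFN-gamma mixture; protective hits raise ATP signal compared with cytokine alone wells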", "type": "functional, cell-based", "conditions": "Rattus norvegicus"}, "[5]": {"assay": "cytotoxicity in MIN6 insulinoma cells, dose response, cytotoxicity control, cell-based, mouse insulinoma (AID 2122);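 note: confirmatory high-throughput counterscreen run to flag cytotoxic compounds; mouse MIN-6 beta cells carrying an insulin promoter eGFP reporter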", "type": "functional"}, "[6]": {"target": "T2, Ubiquitin-conjugating enzyme E2 N (Homo sapiens, UniProt P61088)", "T2 sequence (P61088 whole entry)": "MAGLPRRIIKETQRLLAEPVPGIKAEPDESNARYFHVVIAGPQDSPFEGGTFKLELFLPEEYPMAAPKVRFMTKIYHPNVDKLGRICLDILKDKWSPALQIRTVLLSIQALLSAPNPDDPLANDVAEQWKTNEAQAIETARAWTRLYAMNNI", "type": "functional"}, "[7]": {"target": "T2, Ubiquitin-conjugating enzyme E2 N", "type": "functional", "remark": "listed apart in the source"}, "Bcl-2-related protein A1": {"target": "T3, Bcl-2-related protein A1 (Mus musculus, UniProt Q07440)", "T3 sequence (Q07440 whole entry)": "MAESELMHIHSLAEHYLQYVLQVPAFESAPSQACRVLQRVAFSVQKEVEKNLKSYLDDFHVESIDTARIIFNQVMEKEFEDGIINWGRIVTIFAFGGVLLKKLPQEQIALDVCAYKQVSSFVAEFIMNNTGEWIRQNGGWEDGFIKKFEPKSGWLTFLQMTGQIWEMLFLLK", "type": "functional"}, "Troponin, cardiac muscle": {"target": "Troponin, cardiac muscle (Homo sapiens, UniProt P19429+P45379+P63316)", "assay": "Fluorescence-based biochemical high throughput dose response assay for activators of the calcium sensitivity of cardiac Regulated Thin Filaments (RTF). [Related pubchem assays (depositor defined):AID493008, AID493018, AID504382, AID504383]", "type": "protein-complex assay"}}, "note": "Active and inactive are the calls of the source.", "data": [{"smiles": "COc1ccccc1CNC(=O)c1ccccc1N", "values": [{"measurement": "AC50", "setting": "CAAX prenyl protease 2 [1]", "value": "4.31 µM (active)"}, {"measurement": "AC50", "setting": "Trypsin", "value": "6.1 µM (active)"}, {"measurement": "AC50", "setting": "CAAX prenyl protease 2 [2]", "value": "6.36 µM (active)"}]}, {"smiles": "CC/C=C/C/C=C/C/C=C/CCCCCCCC(=O)OCC", "values": [{"measurement": "AC50", "setting": "[3]", "value": "28.2 µM (inconclusive)"}]}, {"smiles": "Nc1ccc(Br)cc1-c1nc2ccccc2nc1O", "values": [{"measurement": "IC50", "setting": "[4]", "value": "< 0.25 µM (active)"}, {"measurement": "AC50", "setting": "INS1", "value": "0.63 µM (active)"}, {"measurement": "IC50", "setting": "[5]", "value": "< 0.25 µM (active)"}]}, {"smiles": "O=C(CCCCCn1c(=O)[nH]c2ccccc2c1=O)NCCc1c[nH]c2ccccc12", "values": [{"measurement": "IC50", "setting": "[6]", "value": "19.3 µM (active)"}, {"measurement": "IC50", "setting": "[7]", "value": "18.1 µM (active)"}, {"measurement": "IC50", "setting": "Bcl-2-related protein A1", "value": "> 20 µM (inactive)"}]}, {"smiles": "Cc1onc(-c2ccccc2)c1C(=O)Nc1cccc2nsnc12", "values": [{"measurement": "IC50", "setting": "[6]", "value": "15.6 µM (active)"}, {"measurement": "IC50", "setting": "[7]", "value": "> 20 µM (inactive)"}, {"measurement": "IC50", "setting": "Bcl-2-related protein A1", "value": "> 20 µM (inactive)"}]}, {"smiles": "CC(=O)N(C)c1ccc(C(O)(C(F)(F)F)C(F)(F)F)cc1", "values": [{"measurement": "EC50", "setting": "Troponin, cardiac muscle", "value": "> 71.5 µM (inactive)"}]}, {"smiles": "O=C(COc1ccc2ccc(=O)oc2c1)N1CCC(C(=O)O)(c2ccccc2)CC1", "values": [{"measurement": "AC50", "setting": "CAAX prenyl protease 2 [1]", "value": "98.6 µM (active)"}]}]}
